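Following 48 hours of exposure in 96-well plates, responses at five concentrations were used to interpolate endpoints linearly. GI50 marks 50% less growth. TGI denotes the concentration required for complete inhibition of growth.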
Tests used:
Test in all cases: NCI anticancer screen, dose series, 48 h
RPMI-8226 leukemia = tested on: RPMI-8226 leukemia
COLO 205 colon = tested on: COLO 205 colon
NCI-H23 lung = tested on: NCI-H23 lung
HCC-2998 colon = tested on: HCC-2998 colon
EKVX NSCLC = tested on: EKVX NSCLC
HS 578T breast = tested on: HS 578T breast
CAKI-1 renal = tested on: CAKI-1 renal
CCRF-CEM leukemia = tested on: CCRF-CEM leukemia
NCI-H226 lung = tested on: NCI-H226 lung
HCT-116 colon = tested on: HCT-116 colon

Row | SMILES | TGI (RPMI-8226 leukemia) | TGI (COLO 205 colon) | TGI (NCI-H23 lung) | TGI (HCC-2998 colon) | TGI (EKVX NSCLC) | TGI (HS 578T breast) | TGI (CAKI-1 renal) | TGI (CCRF-CEM leukemia) | TGI (NCI-H226 lung) | TGI (HCT-116 colon) | GI50 (RPMI-8226 leukemia) | GI50 (COLO 205 colon) | GI50 (NCI-H23 lung) | GI50 (HCC-2998 colon) | GI50 (EKVX NSCLC) | GI50 (HS 578T breast) | GI50 (CAKI-1 renal) | GI50 (CCRF-CEM leukemia) | GI50 (NCI-H226 lung) | GI50 (HCT-116 colon)
1 | O=C(Nc1ccn(C2CCC(COC(c3ccccc3)(c3ccccc3)c3ccccc3)O2)c(=O)n1)c1ccccc1 (centres undefined) | 5.21 µM | 4.2 µM | 7.8 µM | 29.2 µM | 14.4 µM | 9.05 µM | 13.4 µM | 9.04 µM | 18 µM | 11.9 µM | – | – | – | – | – | – | – | – | – | –
2 | O=[N+]([O-])c1ccc(NC(c2ccccc2)c2ccc3cccnc3c2O)cc1 (centres undefined) | > 100 µM | > 100 µM | > 100 µM | > 100 µM | > 100 µM | > 100 µM | – | 7.97 µM | 9.19 µM | > 55.9 µM | 0.313 µM | 0.448 µM | 0.414 µM | 0.418 µM | 0.393 µM | 0.52 µM | 0.312 µM | 0.246 µM | 0.505 µM | 0.31 µM
3 | Cn1cc(-c2nc(-c3c[nH]c4ccccc34)cs2)c2cccnc21 | 32.3 µM | 1.03 µM | > 100 µM | > 79.7 µM | > 100 µM | > 85.1 µM | > 100 µM | > 100 µM | > 100 µM | > 47.2 µM | 0.541 µM | 0.188 µM | 1.04 µM | 0.844 µM | 0.907 µM | 0.424 µM | 0.273 µM | 0.353 µM | 0.578 µM | 0.364 µM
4 | COc1ccc(CC2OC3(CCCCC3)CC3CCCCN32)cc1 (centres undefined) | > 100 µM | > 100 µM | > 100 µM | > 100 µM | > 100 µM | > 100 µM | > 100 µM | > 100 µM | > 100 µM | > 100 µM | – | – | – | – | – | – | – | – | – | –
5 | CC(C)Cc1cc(-c2cccn2C)c(C#N)c(=O)[nH]1 | > 100 µM | > 100 µM | > 100 µM | > 100 µM | > 100 µM | > 100 µM | > 100 µM | > 100 µM | > 100 µM | > 100 µM | > 100 µM | > 100 µM | > 100 µM | > 100 µM | > 100 µM | > 100 µM | > 100 µM | 23.4 µM | > 100 µM | > 100 µM
6 | COc1ccc(/C=C2\CCC(C)(CN(C)C)C2=O)cc1Br (centres undefined) | 58.4 µM | 34.4 µM | > 95.1 µM | 35.8 µM | 49.3 µM | 85.4 µM | > 91.6 µM | > 80.5 µM | 56.1 µM | 32.1 µM | – | – | – | – | – | – | – | – | – | –
7 | c1ccc2c(c1)CCCc1nnc3nc4ccccc4n3c1-2 | 29.1 µM | > 100 µM | > 100 µM | 24.1 µM | > 100 µM | > 100 µM | > 100 µM | > 100 µM | > 100 µM | 13.8 µM | 2.96 µM | 4.78 µM | 7.31 µM | 6.45 µM | 4.02 µM | 20.5 µM | 5.32 µM | 3.68 µM | 6.39 µM | 3.35 µM
8 | N/C(=N/O)NOCCC(N)C(=O)O (centres undefined) | > 100 µM | > 100 µM | > 100 µM | > 100 µM | > 100 µM | > 100 µM | > 100 µM | > 100 µM | > 100 µM | > 100 µM | > 100 µM | > 100 µM | > 100 µM | > 100 µM | > 100 µM | > 100 µM | > 100 µM | > 100 µM | > 100 µM | > 100 µM
9 | COc1ccc2c(c1)C(=O)CC(C(N)=O)C2 (centres undefined) | > 100 µM | > 100 µM | > 100 µM | > 100 µM | > 100 µM | > 100 µM | > 100 µM | > 100 µM | > 100 µM | > 100 µM | – | – | – | – | – | – | – | – | – | –
10 | COc1cc(-c2cc(-c3ccc(Nc4nc(Nc5ccc(Cl)cc5)nc(Nc5ccc(Cl)cc5)n4)cc3)no2)cc(OC)c1OC | > 100 µM | 21.3 µM | > 100 µM | 91.3 µM | > 100 µM | > 100 µM | > 100 µM | 11.9 µM | > 100 µM | 42.9 µM | 1.75 µM | 2.26 µM | 18 µM | 13.1 µM | 24.9 µM | 1.71 µM | 5.53 µM | 2.16 µM | 27 µM | 4.31 µM
11 | O=C1NC(=O)/C(=C/c2ccc3nccc(-c4ccncc4)c3c2)S1 | 6.75 µM | 3.67 µM | > 6 µM | 3.89 µM | 3.67 µM | 0.54 µM | 2.04 µM | > 10 µM | 2.76 µM | > 5.61 µM | 1.19 µM | 0.454 µM | 0.633 µM | 0.35 µM | 0.407 µM | 0.119 µM | 0.289 µM | 0.495 µM | 0.239 µM | 0.466 µM

Source: PubChem BioAssay (NCI)
